Assay: DPPH Radical Scavenging Activity
Details: DPPH 0.06 mM in methanol
Description: Extraction and isolation of C-PC are carried out as is known in the art (Wu et al. 2016) using commercial grade biomass from a source in Hawaii. The C-PC is then further purified by ultrafiltration using a 10 kDa membrane to obtain an absorbance ratio of A620/A280 of 1.4 and stored frozen as a lyophilized powder. For testing, powder is solubilized in phosphate-citrate buffer to 0.4 mg/mL. Samples are tested for thermal stability at 65° C. for 30 minutes, at pH 6.0, per Example 3. The addition of EPS at a concentration of 1% (w/v; produced from resolubilized lyophilized powder with no added grinding) results in a reduction of the CR value by 13% compared to the control lacking stabilizing agents after exposure to 65° C. for 30 min at pH 6.0. This indicates added stabilization, which can likely be optimized with additional testing. Antioxidant capacity is measured using the DPPH Radical Scavenging Activity as is known in the art (Alam et al. 2013), with the modification of using DPPH (1,1-diphenyl-2-picrylhydrazyl; Sigma-Aldrich D9132) in methanol (0.06 mM), and readings taken on a Biotek Synergy HTX multi-mode microplate reader.

antioxidant activity IC50: 1800 µg/mL
Substance: phycocyanin
